Reference: patent publication US20250213482A1, “OXYGEN-ENHANCED ADAPTIVE FUNCTIONAL BEVERAGE FOR ANTI-AGING AND METHOD OF PREPARATION” (priority 2025, published 2025)

Tests used:
[1] = daily intake of NMN for 90 days, long-term safety; type: in vivo; conditions: 500 mg daily for 90 days
[2] = PQQ supplementation over an 8-week period; type: in vivo; conditions: 8-week period of supplementation
From the text: In another embodiment, PQQ supplementation promotes mitochondrial biogenesis and boosts oxidative metabolism, resulting in increased energy production. […] PQQ acts as a potent antioxidant, reducing oxidative stress by neutralizing harmful free radicals and lowering inflammation. By protecting neurons from oxidative damage, PQQ supplementation contributes to improved cognitive performance, including enhanced memory, attention, and mental clarity.

Row | Structure (SMILES) | impact on blood sugar, liver function, or kidney function [1] | cognitive function [2] | oxidative stress [2]
1 | NC(=O)c1ccc[n+]([C@@H]2O[C@H](COP(=O)([O-])O)[C@@H](O)[C@H]2O)c1 [NMN, nicotinamide mononucleotide] | no impact on blood sugar, liver function, or kidney function | – | –
2 | O=C(O)c1cc(C(=O)O)c2c(n1)C(=O)C(=O)c1cc(C(=O)O)[nH]c1-2 [PQQ, pyrroloquinoline quinone] | – | enhances cognitive function | reduces oxidative stress
